# Laboratory results published in patent publication USRE50724E1, “4-membered ring carboxamides used as nematicides” (SYNGENTA CROP PROTECTION AG, priority 2013, dated 2026).
# Legend:
# Meloidogyne spp. = Meloidogyne spp. (root-knot nematode), nematicide, contact activity, preventive: cucumber seed in filter paper pouch; type: in vivo; settings: 288 h, cucumber cv. Toshka seed in pouch, 3000 eggs, twelve days, read-out: reduction of galling compared to the untreated control
# Method: Meloidogyne spp. (Root-Knot Nematode) Nematicide, Contact Activity, Preventive. Filter papers (9 cm×4.5 cm) with a small pocket were placed into plastic pouches (12 cm×6 cm). One cucumber cv. Toshka seed was placed in the centre of the filter paper pocket of all the pouches needed for a test. The cucumber seeds in the pouches were treated with test solutions at 200 ppm by pipetting the solution directly over the cucumber seed in the filter paper pocket in the pouch. Prior to application, the compound solution was prepared at twice the concentration required and the egg suspension is prepared with FORL nutrient solution with 3000 eggs/0.5 ml. After applying all the treatments, 3000 eggs (in 0.5 ml of FORL nutrient solution) were pipetted into the pouches. The pouches were incubated in a moist chamber for twelve days and watered regularly to maintain good filter paper moisture essential for the growing cucumber root system. After this period, the filter paper containing the germinated cucumber seedling was removed from the plastic pouch to assess the number of galls caused by Meloidogyne spp. per root system. Phytotoxicity was measured as a reduction of growth of the emerged cucumber seedling in comparison to the control.
# Heterodera schachtii = Heterodera schachtii (sugar beet cyst nematode), nematicide, contact activity: juvenile paralysis in 16-well assay plates; type: in vivo; settings: 200 ppm, approx. 500 juveniles per well, 24 hours incubation at 25° C. in darkness, read-out: nematode immobilization compared to the untreated control
# Method: Heterodera schachtii (Sugar Beet Cyst Nematode), Nematicide, Contact Activity
# The tested application rate of each compound was 200 ppm. All solutions were brought to a concentration of 400 ppm, respectively, as they were subsequently diluted by adding the equivalent amount of water containing juvenile nematodes. After preparation of the suspensions, 1 ml of each suspension and concentration was transferred to 16-well assay plates with a total of three replicates per treatment. Approximately 500 juveniles of Heterodera schachtii were added in 1 ml of water to each well. Nematodes in water served as controls. The plates were placed in a dark box and stored at room temperature. Nematode paralysis was determined after 24 hours incubation at 25° C. in darkness.
Compound,pest or weed control at 200 ppm (Meloidogyne spp.),pest or weed control at 200 ppm (Heterodera schachtii)
"Cc1occc1C(=O)N[C@H]1CC[C@H]1c1ccc(Cl)cc1Cl [Compound 61.64, N-[(1S,2S)-2-(2,4-dichlorophenyl)cyclobutyl]-2-methylfuran-3-carboxamide]",> 80%,> 75%
"O=C(N[C@H]1CC[C@H]1c1ccc(Cl)cc1Cl)c1c(F)cccc1Cl [Compound 61.66, 2-chloro-N-[(1S,2S)-2-(2,4-dichlorophenyl)cyclobutyl]-6-fluorobenzamide]",> 80%,> 75%
"COc1cccc(F)c1C(=O)N[C@H]1CC[C@H]1c1ccc(Cl)cc1Cl [Compound 61.68, N-[(1S,2S)-2-(2,4-dichlorophenyl)cyclobutyl]-2-fluoro-6-methoxybenzamide]",> 80%,> 75%
"Cc1cccc(F)c1C(=O)N[C@H]1CC[C@H]1c1ccc(Cl)cc1Cl [Compound 61.69, N-[(1S,2S)-2-(2,4-dichlorophenyl)cyclobutyl]-2-fluoro-6-methylbenzamide]",> 80%,> 75%
"Cn1cccc1C(=O)N[C@H]1CC[C@H]1c1ccc(Cl)cc1Cl [Compound 61.76, N-[(1S,2S)-2-(2,4-dichlorophenyl)cyclobutyl]-1-methylpyrrole-2-carboxamide]",> 80%,> 75%
"Cn1cc(C(=O)N[C@H]2CC[C@H]2c2ccc(Cl)cc2Cl)c(C(F)F)n1 [Compound 61.77, N-[(1S,2S)-2-(2,4-dichlorophenyl)cyclobutyl]-3-(difluoromethyl)-1-methylpyrazole-4-carboxamide]",> 80%,> 75%
"O=C(N[C@H]1CC[C@H]1c1ccc(Cl)cc1Cl)c1ccsc1Cl [Compound 61.95, 2-chloro-N-[(1S,2S)-2-(2,4-dichlorophenyl)cyclobutyl]thiophene-3-carboxamide]",> 80%,> 75%
